Source: patent US20250236838A1, “E. COLI NISSLE STRAIN WITH IMPROVED TRANSFORMATION EFFICIENCY” (priority 2024, published 2025)
“And” between values parts separate entries of the source, which are not always exact repeats. Identical values can stand only once.

Experiment: Hydrophobicity, dodecane partitioning assay
Assay type: physicochemical, E. coli Nissle
Protocol: Hydrophobicity was measured using a standard partitioning assay. Fresh cultures of both strains were grown till log phase (OD600=0.7). The OD was found using Thermo Fischer's NanoDrop^C. The OD546 of the cell (OD1) was adjusted to 0.3 using 10 mM CaCO3 solution. 4 ml of the cell suspension was transferred to individual test tubes having 1 ml of dodecane and vortexed at 2500 rpm for 10 minutes to homogenize the phases. The phases were allowed to separate for 15 minutes. The OD546 of the aqueous phase (OD2) was measured.
The mean percentage of partitioning was calculated using triplicate samples. Partitioning of the bacteria suspension is calculated using Equation (3).

In the case of E. coli Nissle 1917 [Wild Type], the OD2 (OD546 of the aqueous phase after dodecane partitioning) is reported as 0.14 and 0.17, the OD1 (OD546 of the cell suspension before partitioning) is reported as 0.29 and 0.27 and the membrane hydrophobicity (conclusion from phase partitioning) is reported as “hydrophilic”. The “Average Partitioning” value (mean of triplicate samples) was 45.636% and the “Percentage of Partitioning” value (single samples of triplicate) was 51.724% and 37.037% and 48.148%.
